US12558428B2, “Heterobifunctional compounds and their use in treating disease” (Halda Therapeutics OpCo, Inc., priority 2024, dated 2026)
Where two headings read alike, the source gives them in different places.

Columns and labels:
[1] = system: T-Rex 293 cells having increased expression of estrogen receptor alpha protein; test: Cellular growth inhibition assay, T-Rex 293 cells, (+) doxycycline; format: cell-based; settings: T-REx-293, 72 h, 72 hours
Experimental: (§1) Exemplary compounds were tested for the ability to inhibit the proliferation of the following types of cells: (i) a T-Rex 293 cell line having increased expression of estrogen receptor alpha protein from exposure to doxycycline and (ii) a T-Rex 293 cell line lacking increased expression of estrogen receptor alpha protein.
(§2) The following types of cells were prepared for this experiment: (i) a T-Rex 293 cell line having increased expression of estrogen receptor alpha protein from exposure to doxycycline and (ii) a T-Rex 293 cell line lacking increased expression of estrogen receptor alpha protein. The ability of the test compounds to inhibit proliferation of the foregoing cell types was evaluated according to the procedures set forth below.
(§3) The doxycycline-inducible estrogen receptor alpha protein expressing cell line was established using the following protocol: T-Rex 293 cells were purchased from Invitrogen (Cat #R71007) and transfected using Lipofectamine 2000 with the wild-type estrogen receptor alpha protein sequence cloned into the pcDNA4/TO vector. Transfected cells were selected using 400 μg/mL Zeocin (Invitrogen Cat #R25001). Following selection, single clones were raised and maintained in Dulbecco's Modified Eagle Medium (DMEM) supplemented with 10% w/w Tetracycline-free fetal bovine serum (FBS) and 250 μg/mL Zeocin. Clones were analyzed for expression of estrogen receptor alpha protein in the presence and absence of 3 ng/mL doxycycline (Sigma Cat #D9891), and a single doxycycline-inducible clone (hereinafter “SC”) was selected for use in downstream assays.
(§4) The SC cells were seeded on poly-D-lysine coated, black clear-bottom 384-well plates at 2500/well, in 25 μL Phenol Red Free Dulbecco's Modified Eagle Medium (DMEM) supplemented with 10% w/w charcoal-dextran treated fetal bovine serum (FBS) and 1% w/w pen-strep, with or without 3 ng/mL doxycycline. Pen-Strep is a commercially available mixture of penicillin G and streptomycin, which is used in mammalian cell culture media to prevent bacterial contamination. Phenol Red Free Dulbecco's Modified Eagle Medium (DMEM) supplemented with 10% w/w charcoal-dextran treated fetal bovine serum (FBS) and 1% w/w pen-strep, with or without 3 ng/mL doxycycline is herein referred to as Treatment Medium. Following seeding of cells in the plates, the plates were spun at 300×g for 30 seconds, then equilibrated to room temperature for 30 minutes, and then deposited in a humidified tissue culture incubator maintained at 37° C. with 5% CO2.
(§5) At 24 hours after seeding of the cells, dilutions of test compound were prepared in DMSO and dissolved in Treatment Medium, to achieve a final DMSO concentration of 0.5% w/w, thereby providing the Test Compound Solution. A 25 μL aliquot of the Test Compound Solution was added to cells in the well plates. An equal volume of a solution containing DMSO and Treatment Medium was used as a negative control. Following treatment of cells with Test Compound Solution or said equal volume of a solution containing DMSO and Treatment Medium, the plates were spun at 300×g for 30 seconds, and then left in an incubator for 72 hours.
(§6) At the end of the treatment duration, cell viability was quantified with CellTiter-Glo 2.0 reagent (Promega Cat #G9243). For this purpose, plates were equilibrated to room temperature for 30 minutes, and then 25 μL of CellTiter-Glo 2.0 reagent was added to cells in the plate wells. Plates were then agitated on a shaker for two minutes at 500 rpm and subsequently incubated at room temperature for 10 minutes. Following incubation, the plates were spun at 3000×g for 30 seconds, then sealed with an optical adhesive cover, and luminescence readings were measured with an EnVision Plate Reader (Perkin Elmer).
(§7) Data was normalized using zero luminescence for baseline. […]

[2] = system: T-Rex 293 cells lacking increased expression of estrogen receptor alpha protein; test: Cellular growth inhibition assay, T-Rex 293 cells, (−) doxycycline; format: cell-based; settings: T-REx-293, 72 h, 72 hours
Experimental: as §1, §2, §3, §4, §5, §6, §7

[3] = Table 7-A, T-Rex 293 cells with doxycycline (increased ERα expression), CellTiter-Glo, read-out: (+) Dox GI50
[4] = Table 7-A, T-Rex 293 cells without doxycycline (lacking increased ERα expression), CellTiter-Glo, read-out: (−) Dox GI50

## COc1cc(N2CCN(CC3(O)CCN(c4ccc(C5=N[C@@H](C)c6nnc(C)n6-c6sc(C)c(C)c65)cc4)CC3)CC2)ccc1[C@@H]1c2ccc(O)cc2CC[C@@H]1c1ccccc1 (single isomer, unassigned) [III-321]
[1]; [3]
  GI50: < 50 nM
[2]; [4]
  GI50: 500 to 2500 nM

## COc1cc(N2CCN(CC3(O)CCN(c4ccc(C5=N[C@@H](C)c6nnc(C)n6-c6sc(C)c(C)c65)cc4)CC3)CC2)ccc1[C@H]1c2ccc(O)cc2CC[C@H]1c1ccccc1 (single isomer, unassigned) [III-322]
[1]; [3]
  GI50: 50 to 500 nM
[2]; [4]
  GI50: 50 to 500 nM

## COc1cc(N2CCN(CC3(O)CCN(c4ccc(C5=N[C@@H](C)c6nnc(C)n6-c6sc(C)c(C)c65)c(F)c4)CC3)CC2)ccc1[C@H]1c2ccc(O)cc2CC[C@H]1c1ccc(F)cc1 (single isomer, unassigned) [III-327]
[1]; [3]
  GI50: 50 to 500 nM
[2]; [4]
  GI50: 50 to 500 nM

## COc1cc(N2CCN(CC3(O)CCN(c4ccc(C5=N[C@@H](C)c6nnc(C)n6-c6sc(C)c(C)c65)cc4)CC3)CC2)ccc1[C@H]1c2ccc(O)cc2CC[C@H]1c1ccc(F)cc1F (single isomer, unassigned) [III-333]
[1]; [3]
  GI50: 50 to 500 nM
[2]; [4]
  GI50: 500 to 2500 nM

## COc1cc(N2CCN(CC3(O)CCN(c4ccc(C5=N[C@@H](C)c6nnc(C)n6-c6sc(C)c(C)c65)cc4)CC3)CC2)ccc1[C@@H]1c2ccc(O)cc2CC[C@@H]1c1ccc(F)cc1F (single isomer, unassigned) [III-334]
[1]; [3]
  GI50: < 50 nM
[2]; [4]
  GI50: 500 to 2500 nM

## COc1ccc([C@@H]2CCc3cc(O)ccc3[C@@H]2c2ccc(N3CCN(CC4(O)CCN(c5ccc(C6=N[C@@H](C)c7nnc(C)n7-c7sc(C)c(C)c76)cc5)CC4)CC3)cc2Cl)cc1 (single isomer, unassigned) [III-335]
[1]; [3]
  GI50: 50 to 500 nM
[2]; [4]
  GI50: 500 to 2500 nM

## COc1ccc([C@H]2CCc3cc(O)ccc3[C@H]2c2ccc(N3CCN(CC4(O)CCN(c5ccc(C6=N[C@@H](C)c7nnc(C)n7-c7sc(C)c(C)c76)cc5)CC4)CC3)cc2Cl)cc1 (single isomer, unassigned) [III-336]
[1]; [3]
  GI50: < 50 nM
[2]; [4]
  GI50: 500 to 2500 nM

## Cn1cc(-c2cc(C(C)(C)O)ccc2Oc2ccc(N3CCN(CC4CCN(c5ccc([C@@H]6c7ccc(O)cc7CC[C@@H]6c6ccccc6)cc5)CC4)CC3)cc2)c2cc[nH]c2c1=O [I-18, 4-(2-(4-(4-((1-(4-((1R,2S)-6-hydroxy-2-phenyl-1,2,3,4-tetrahydronaphthalen-1-yl)phenyl)piperidin-4-yl)methyl)piperazin-1-yl)phenoxy)-5-(2-hydroxypropan-2-yl)phenyl)-6-methyl-1,6-dihydro-7H-pyrrolo[2,3-c]pyridin-7-one]
[1]; T-Rex 293 cells with doxycycline-induced ERα expression, CellTiter-Glo 2.0, read-out: (+) Dox TRex ERa (GI50)
  GI50: < 50 nM
[2]; T-Rex 293 cells without doxycycline, CellTiter-Glo 2.0, read-out: (−) Dox TRex ERa (GI50)
  GI50: 50 to 500 nM

## Cc1sc2c(c1C)C(c1ccc(N3CC(N4CCN(CCOc5ccc([C@@H]6c7ccc(O)cc7CC[C@@H]6c6ccccc6)cc5)CC4)C3)cc1)=NC(Cc1ncco1)c1nnc(C)n1-2 (stereo partly drawn) [III-41]
[1]; [3]
  GI50: < 50 nM
[2]; [4]
  GI50: 50 to 500 nM

## COc1cc(N2CCN(CC3CCN(c4ccc(C5=N[C@@H](C)c6nnc(C)n6-c6sc(C)c(C)c65)cc4)CC3)CC2)c(F)cc1[C@@H]1c2ccc(O)cc2CC[C@@H]1c1ccc(F)cc1 [III-313]
[1]; [3]
  GI50: < 50 nM
[2]; [4]
  GI50: 500 to 2500 nM

## COc1cc(N2CCN(CC3CCN(c4ccc(C5=N[C@@H](C)c6nnc(C)n6-c6sc(C)c(C)c65)cc4)CC3)CC2)c(F)cc1[C@H]1c2ccc(O)cc2CC[C@H]1c1ccc(F)cc1 [III-314]
[1]; [3]
  GI50: 50 to 500 nM
[2]; [4]
  GI50: 500 to 2500 nM

## COc1cc(N2CCN(CC3CCN(c4ccc(C5=N[C@@H](C)c6nnc(C)n6-c6sc(C)c(C)c65)cc4)CC3)CC2)ccc1[C@H]1c2ccc(O)cc2CC[C@H]1c1ccc(F)cc1 [III-315]
[1]; [3]
  GI50: 500 to 2500 nM
[2]; [4]
  GI50: 500 to 2500 nM

## COc1cc(N2CCN(CC3CCN(c4ccc(C5=N[C@@H](C)c6nnc(C)n6-c6sc(C)c(C)c65)cc4)CC3)CC2)ccc1[C@@H]1c2ccc(O)cc2CC[C@@H]1c1ccc(F)cc1 [III-316]
[1]; [3]
  GI50: < 50 nM
[2]; [4]
  GI50: 500 to 2500 nM

## COc1cc(N2CCN(CC3(O)CCN(c4ccc(C5=N[C@@H](C)c6nnc(C)n6-c6sc(C)c(C)c65)cc4)CC3)CC2)c(F)cc1[C@H]1c2ccc(O)cc2CC[C@H]1c1ccc(F)cc1 [III-319]
[1]; [3]
  GI50: < 50 nM
[2]; [4]
  GI50: 50 to 500 nM

## COc1cc(N2CCN(CC3(O)CCN(c4ccc(C5=N[C@@H](C)c6nnc(C)n6-c6sc(C)c(C)c65)cc4)CC3)CC2)c(F)cc1[C@@H]1c2ccc(O)cc2CC[C@@H]1c1ccc(F)cc1 [III-320]
[1]; [3]
  GI50: < 50 nM
[2]; [4]
  GI50: 500 to 2500 nM

## Cc1sc2c(c1C)C(c1ccc(N3CCC(CN4CCN(c5ccc([C@@H]6c7ccc(O)cc7CC[C@@H]6c6ccccc6F)c(F)c5)CC4)CC3)cc1)=N[C@@H](C)c1nnc(C)n1-2 [III-323]
[1]; [3]
  GI50: < 50 nM
[2]; [4]
  GI50: 500 to 2500 nM

## Cc1sc2c(c1C)C(c1ccc(N3CCC(CN4CCN(c5ccc([C@H]6c7ccc(O)cc7CC[C@H]6c6ccccc6F)c(F)c5)CC4)CC3)cc1)=N[C@@H](C)c1nnc(C)n1-2 [III-324]
[1]; [3]
  GI50: 50 to 500 nM
[2]; [4]
  GI50: 50 to 500 nM

## Cc1sc2c(c1C)C(c1ccc(N3CCC(CN4CCN(c5ccc([C@@H]6c7ccc(O)cc7CC[C@@H]6c6cccc(F)c6)c(F)c5)CC4)CC3)cc1)=N[C@@H](C)c1nnc(C)n1-2 [III-325]
[1]; [3]
  GI50: 50 to 500 nM
[2]; [4]
  GI50: 500 to 2500 nM

## Cc1sc2c(c1C)C(c1ccc(N3CCC(CN4CCN(c5ccc([C@H]6c7ccc(O)cc7CC[C@H]6c6cccc(F)c6)c(F)c5)CC4)CC3)cc1)=N[C@@H](C)c1nnc(C)n1-2 [III-326]
[1]; [3]
  GI50: 500 to 2500 nM
[2]; [4]
  GI50: 500 to 2500 nM

## COc1cc(N2CCN(CC3(O)CCN(c4ccc(C5=N[C@@H](C)c6nnc(C)n6-c6sc(C)c(C)c65)c(F)c4)CC3)CC2)ccc1[C@@H]1c2ccc(O)cc2CC[C@@H]1c1ccc(F)cc1 [III-328, 1-(3-fluoro-4-((6S)-2,3,6,9-tetramethyl-6H-thieno[3,2-f][1,2,4]triazolo[4,3-a][1,4]diazepin-4-yl)phenyl)-4-((4-(4-((1S,2S)-2-(4-fluorophenyl)-6-hydroxy-1,2,3,4-tetrahydronaphthalen-1-yl)-3-methoxyphenyl)piperazin-1-yl)methyl)piperidin-4-ol]
[1]; [3]
  GI50: < 50 nM
[2]; [4]
  GI50: 500 to 2500 nM

## COc1cc(N2CCN(CC3CCN(c4ccc(C5=N[C@@H](C)c6nnc(C)n6-c6sc(C)c(C)c65)cc4)CC3)CC2)ccc1[C@H]1c2ccc(O)cc2CC[C@H]1c1ccc(C)cc1 [III-329]
[1]; [3]
  GI50: 50 to 500 nM
[2]; [4]
  GI50: 50 to 500 nM

## COc1cc(N2CCN(CC3CCN(c4ccc(C5=N[C@@H](C)c6nnc(C)n6-c6sc(C)c(C)c65)cc4)CC3)CC2)ccc1[C@@H]1c2ccc(O)cc2CC[C@@H]1c1ccc(C)cc1 [III-330]
[1]; [3]
  GI50: < 50 nM
[2]; [4]
  GI50: 50 to 500 nM

## COc1cc(N2CCN(CC3CCN(c4ccc(C5=N[C@@H](C)c6nnc(C)n6-c6sc(C)c(C)c65)c(F)c4)CC3)CC2)ccc1[C@H]1c2ccc(O)cc2CC[C@H]1c1ccc(C)cc1 [III-331]
[1]; [3]
  GI50: 500 to 2500 nM
[2]; [4]
  GI50: 500 to 2500 nM

## COc1cc(N2CCN(CC3CCN(c4ccc(C5=N[C@@H](C)c6nnc(C)n6-c6sc(C)c(C)c65)c(F)c4)CC3)CC2)ccc1[C@@H]1c2ccc(O)cc2CC[C@@H]1c1ccc(C)cc1 [III-332]
[1]; [3]
  GI50: < 50 nM
[2]; [4]
  GI50: 50 to 500 nM
